Laboratory results reported in patent US20230159916A1, “METHODS OF FUNCTIONAL LINKAGE OF CHROMOSOMAL POSITIONS” (ARPEGGIO BIOSCIENCES, INC., priority 2020, published 2023).

Experiments:
[1] = test system: HMOX1; test: RT-qPCR of HMOX1 expression in 786-O cells; format: cell-based; conditions: 1 μM, four hours
Protocol: (§1) To confirm HMOX1 induction by the GPX4 inhibitors, an RT-qPCR assay was performed using three ferroptosis sensitive cancer cell lines: the fibrosarcoma cell line HT-1080, a Ewing's sarcoma cell line A673, and a renal clear cell carcinoma cell line 786-O. Briefly, cells were exposed to 1 μM ML162 or 1 μM RSL3 for 4 hours, RNA was isolated and an RT-qPCR assay was performed.
(§2) Briefly, HT-1080, A673, and 786-O cells were exposed to 1 μM ML162 or 1 μM RLS3 with or without 1 μM ferrostatin-1 for four hours, RNA was isolated and an RT-qPCR assay was performed to quantify HMOX1 expression. DMSO was used as a control exposure.

[2] = test system: HMOX1; test: RT-qPCR of HMOX1 expression in A673 cells; format: cell-based; conditions: A673, 1 μM, four hours
Protocol: as §1, §2

[3] = test system: HMOX1; test: nascent RNA sequencing of HT-1080 cells exposed to GPX4 inhibitors; format: cell-based; conditions: HT-1080, 1 μM, 1 hour, Pval<10^−2
Protocol: (§3) To assess the transcriptional response of a cell to inhibition of GPX4, we exposed two cell lines to two different chemical inhibitors of GPX4 (ML162 and RSL3; available from Sigma Aldrich and Apex Bio respectively) and examined the transcriptional responses using a nascent RNA sequencing protocol. Briefly, a fibrosarcoma cell line HT-1080 and a lung fibroblast cell line IMR90 were exposed to 1 μM ML162 or 1 μM RSL3 for 1 hour and the nascent RNA sequencing protocol was performed.

[4] = test system: HMOX1; test: nascent RNA sequencing of IMR90 cells exposed to GPX4 inhibitors; format: cell-based; conditions: IMR90, 1 μM, 1 hour, Pval 10^−3
Protocol: as §3

[5] = test system: HMOX1; test: RT-qPCR of HMOX1 expression in HT-1080 cells; format: cell-based; conditions: for expression of HMOX1 relative to ACTB, absence of ferrostatin-1: HT-1080, 1 μM, four hours; for effect of ferrostatin-1 on the substance's induction of HMOX1: HT-1080, sodium arsenite 80 μM, hemin 5 μM, RSL3 1 μM, with or without 1 μM ferrostatin-1, four hours, normalized to DMSO
Protocol: as §1
To further validate induction of HMOX1 mRNA expression by GPX4 inhibition, RT-qPCR was performed using varying doses of the RSL3 inhibitor. Briefly, HT-1080 cells were exposed to 5 μM RSL3, 1 μM RSL3, and 0.2 μM RSL3 for four hours, RNA was isolated and an RT-qPCR assay was performed to quantify HMOX1 expression. DMSO was used as a control exposure.
as §2
Sodium arsenite and hemin are known to be inducers of general oxidative stress in cells. Briefly, HT-1080 cells were exposed to sodium arsenite (80 μM), hemin (5 μM), ML162 (1 μM), or RSL3 (1 μM) with or without 1 μM ferrostatin-1 for four hours, RNA was isolated and an RT-qPCR assay was performed to quantify HMOX1 expression. DMSO was used as a control exposure.

[6] = test system: HT-1080, A673, and 786-O cells lines; conditions: ferrostatin-1 added to the culture media; HT-1080, A673, 786-O; cited from earlier work
[7] = test system: HMOX1; test: RT-qPCR of HMOX1, ferrostatin-1 rescue of GPX4 inhibitor-mediated induction in HT-1080, A673 and 786-O cells; format: cell-based; conditions: HT-1080, A673, 786-O; 1 μM ferrostatin-1 with 1 μM ML162 or RSL3, four hours
Protocol: as §2

Molecule	expression of HMOX1 relative to ACTB, absence of ferrostatin-1 [1]	expression of HMOX1 relative to ACTB, absence of ferrostatin-1 [2]	differential expression of HMOX1 (nascent RNA sequencing) [3]	differential expression of HMOX1 (nascent RNA sequencing) [4]	expression of HMOX1 relative to ACTB, absence of ferrostatin-1 [5]	effect of ferrostatin-1 on the substance's induction of HMOX1 [5]	further results
COc1ccc(N(C(=O)CCl)C(C(=O)NCCc2ccccc2)c2cccs2)cc1Cl (centres unmarked) [ML162]	HMOX1 expression was observed in all three cell lines	HMOX1 expression was observed in all three cell lines	strongly differentially expressed	strongly differentially expressed	HMOX1 expression was observed in all three cell lines	–	expression of HMOX1 relative to ACTB, presence of ferrostatin-1 ([5]; HT-1080, 1 μM inhibitor with 1 μM ferrostatin-1, four hours): induced HMOX1 even in the presence of ferrostatin-1
COC(=O)c1ccc([C@@H]2c3[nH]c4ccccc4c3C[C@@H](C(=O)OC)N2C(=O)CCl)cc1 [RSL3]	HMOX1 expression was observed in all three cell lines	HMOX1 expression was observed in all three cell lines	strongly differentially expressed	strongly differentially expressed	HMOX1 expression was observed in all three cell lines	dependent on lipid peroxidation	dose dependence of HMOX1 expression relative to ACTB ([5]; HT-1080, 5 μM, 1 μM and 0.2 μM RSL3, four hours): proportional to the dose
CCOC(=O)c1ccc(NC2CCCCC2)c(N)c1 [ferrostatin-1]	–	–	–	–	–	–	cellular viability of cells treated with small molecules that induce lipid peroxidation (e.g., GPX4 inhibitors) [6]: rescues cellular viability; effect of ferrostatin-1 on induction of HMOX1 by RSL3 and ML162 [7]: sufficient to prevent induction of HMOX1 in most conditions
O=[As]O [sodium arsenite]	–	–	–	–	–	not affected by the presence of ferrostatin-1	–
hemin	–	–	–	–	–	not affected by the presence of ferrostatin-1	–
